Experimental data taken from ChEMBL document CHEMBL5053512, “Discovery and Preclinical Pharmacology of an Oral Bromodomain and Extra-Terminal (BET) Inhibitor Using Scaffold-Hopping and Structure-Guided Drug Design” (J Med Chem, 2021).

What was measured:
[1] = biological target: T1, Voltage-gated inwardly rectifying potassium channel KCNH2 (Homo sapiens, UniProt Q12809); assay: Inhibition of human ERG by patch-clamp assay
[2] = Elimination half life in monkey at 0.1 mg/kg, iv; assay type: ADME, organism-based, Macaca mulatta; conditions: rhesus monkey, in vivo, read-out: beta t1/2 (converted)
[3] = Total plasma clearance in rat at 1 mg/kg, iv; assay type: ADME, organism-based
[4] = Efflux ratio of permeability in human Caco-2 cells; assay type: ADME, cell-based
[5] = biological target: Cytochrome P450 2C19 (Homo sapiens, UniProt P33261); assay: Inhibition of CYP2C19 (unknown origin); assay type: ADME
[6] = Oral bioavailability in monkey at 5 mg/kg; assay type: ADME, organism-based, Macaca mulatta; conditions: rhesus monkey, in vivo
[7] = tested on: NCI-H1623; assay: Anticancer activity against human NCI-H1623 cells; assay type: functional, cell-based
[8] = Antitumour activity against patient-derived human PAT160 cells xenografted in mouse model at 1.6 mg/kg, po bid, 5 days on and 2 days off for 2 weeks; assay type: functional; conditions: PAT160, 120 h, time 5 day, read-out: TGI
[9] = Volume of distribution at steady state in monkey at 0.1 mg/kg, iv; assay type: ADME, organism-based, Macaca mulatta; conditions: rhesus monkey, in vivo, read-out: Vdss
[10] = Antitumour activity against human LG0787F cells xenografted in po dosed NSG mouse assessed as minimum effective concentration measured after 12 hrs; assay type: functional; conditions: dose 0.25 mg/kg/day
[11] = Antitumour activity against patient-derived human LGO52.0F/Cis/R48 cells xenografted in mouse model at 1.6 mg/kg, po bid, 5 days on and 2 days off for 2 weeks; assay type: functional; conditions: LGO52.0F/Cis/R48, 120 h, time 5 day, read-out: TGI
[12] = biological target: Cytochrome P450 2D6 (Homo sapiens, UniProt P10635); assay: Inhibition of CYP2D6 (unknown origin); assay type: ADME
[13] = Cmax in human LG0787F cells xenografted in NSG mouse at 1 mg/kg/day, po qd; assay type: ADME, organism-based; design: dose 1 mg/kg/day, route po; conditions: in vivo
[14] = Antitumour activity against human LG0787F cells xenografted in NSG mouse assessed as tumour growth inhibition at 0.5 mg/kg/day infused continuously over 6 days using Alzet pump; assay type: functional; conditions: 144 h, time 6 day, read-out: TGI
[15] = tested on: HCC95; assay: Anticancer activity against human HCC95 cells; assay type: functional, cell-based
[16] = Antitumour activity against patient-derived human PAT129 cells xenografted in mouse model at 1.6 mg/kg, po bid, 5 days on and 2 days off for 2 weeks; assay type: functional; conditions: PAT129, 120 h, time 5 day, read-out: TGI
[17] = Volume of distribution at steady state in mouse at 1.75 mg/kg, iv; assay type: ADME, organism-based; conditions: in vivo, read-out: Vdss
[18] = Antitumour activity against human LG0787F cells xenografted in NSG mouse assessed as tumour growth inhibition at 0.25 mg/kg/day, po bid; assay type: functional; conditions: read-out: TGI
[19] = tested on: SK-MES-1; assay: Anticancer activity against human SK-MES-1 cells; assay type: functional, cell-based
[20] = biological target: Bromodomain-containing protein 2 (Homo sapiens, UniProt P25440); assay: Inhibition of human BRD2 measured by TR-FRET assay
Chain of Bromodomain-containing protein 2 (P25440 whole entry): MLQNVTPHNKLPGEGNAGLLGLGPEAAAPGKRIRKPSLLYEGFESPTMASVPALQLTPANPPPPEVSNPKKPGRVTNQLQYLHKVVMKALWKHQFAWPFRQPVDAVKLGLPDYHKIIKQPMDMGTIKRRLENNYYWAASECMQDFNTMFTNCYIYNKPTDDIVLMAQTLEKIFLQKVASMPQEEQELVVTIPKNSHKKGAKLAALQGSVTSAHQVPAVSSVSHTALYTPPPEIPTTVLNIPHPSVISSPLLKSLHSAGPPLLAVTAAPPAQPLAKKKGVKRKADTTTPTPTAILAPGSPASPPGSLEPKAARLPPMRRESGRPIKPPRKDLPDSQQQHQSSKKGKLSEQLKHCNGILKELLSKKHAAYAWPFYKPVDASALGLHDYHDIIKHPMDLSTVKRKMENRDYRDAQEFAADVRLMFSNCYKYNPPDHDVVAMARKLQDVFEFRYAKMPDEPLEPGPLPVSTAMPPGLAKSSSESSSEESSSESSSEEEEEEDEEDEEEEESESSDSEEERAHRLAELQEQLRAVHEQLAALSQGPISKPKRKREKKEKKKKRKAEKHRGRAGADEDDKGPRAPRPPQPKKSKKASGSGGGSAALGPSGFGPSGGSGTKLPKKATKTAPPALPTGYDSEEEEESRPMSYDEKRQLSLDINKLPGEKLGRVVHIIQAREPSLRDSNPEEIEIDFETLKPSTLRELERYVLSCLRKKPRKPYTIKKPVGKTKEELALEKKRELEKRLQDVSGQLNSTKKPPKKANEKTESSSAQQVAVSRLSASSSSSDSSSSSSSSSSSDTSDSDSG

[21] = biological target: CREB-binding protein (Homo sapiens) (UniProt Q92793)
Chain of CREB-binding protein (Homo sapiens) (Q92793 2-2442 limits assumed): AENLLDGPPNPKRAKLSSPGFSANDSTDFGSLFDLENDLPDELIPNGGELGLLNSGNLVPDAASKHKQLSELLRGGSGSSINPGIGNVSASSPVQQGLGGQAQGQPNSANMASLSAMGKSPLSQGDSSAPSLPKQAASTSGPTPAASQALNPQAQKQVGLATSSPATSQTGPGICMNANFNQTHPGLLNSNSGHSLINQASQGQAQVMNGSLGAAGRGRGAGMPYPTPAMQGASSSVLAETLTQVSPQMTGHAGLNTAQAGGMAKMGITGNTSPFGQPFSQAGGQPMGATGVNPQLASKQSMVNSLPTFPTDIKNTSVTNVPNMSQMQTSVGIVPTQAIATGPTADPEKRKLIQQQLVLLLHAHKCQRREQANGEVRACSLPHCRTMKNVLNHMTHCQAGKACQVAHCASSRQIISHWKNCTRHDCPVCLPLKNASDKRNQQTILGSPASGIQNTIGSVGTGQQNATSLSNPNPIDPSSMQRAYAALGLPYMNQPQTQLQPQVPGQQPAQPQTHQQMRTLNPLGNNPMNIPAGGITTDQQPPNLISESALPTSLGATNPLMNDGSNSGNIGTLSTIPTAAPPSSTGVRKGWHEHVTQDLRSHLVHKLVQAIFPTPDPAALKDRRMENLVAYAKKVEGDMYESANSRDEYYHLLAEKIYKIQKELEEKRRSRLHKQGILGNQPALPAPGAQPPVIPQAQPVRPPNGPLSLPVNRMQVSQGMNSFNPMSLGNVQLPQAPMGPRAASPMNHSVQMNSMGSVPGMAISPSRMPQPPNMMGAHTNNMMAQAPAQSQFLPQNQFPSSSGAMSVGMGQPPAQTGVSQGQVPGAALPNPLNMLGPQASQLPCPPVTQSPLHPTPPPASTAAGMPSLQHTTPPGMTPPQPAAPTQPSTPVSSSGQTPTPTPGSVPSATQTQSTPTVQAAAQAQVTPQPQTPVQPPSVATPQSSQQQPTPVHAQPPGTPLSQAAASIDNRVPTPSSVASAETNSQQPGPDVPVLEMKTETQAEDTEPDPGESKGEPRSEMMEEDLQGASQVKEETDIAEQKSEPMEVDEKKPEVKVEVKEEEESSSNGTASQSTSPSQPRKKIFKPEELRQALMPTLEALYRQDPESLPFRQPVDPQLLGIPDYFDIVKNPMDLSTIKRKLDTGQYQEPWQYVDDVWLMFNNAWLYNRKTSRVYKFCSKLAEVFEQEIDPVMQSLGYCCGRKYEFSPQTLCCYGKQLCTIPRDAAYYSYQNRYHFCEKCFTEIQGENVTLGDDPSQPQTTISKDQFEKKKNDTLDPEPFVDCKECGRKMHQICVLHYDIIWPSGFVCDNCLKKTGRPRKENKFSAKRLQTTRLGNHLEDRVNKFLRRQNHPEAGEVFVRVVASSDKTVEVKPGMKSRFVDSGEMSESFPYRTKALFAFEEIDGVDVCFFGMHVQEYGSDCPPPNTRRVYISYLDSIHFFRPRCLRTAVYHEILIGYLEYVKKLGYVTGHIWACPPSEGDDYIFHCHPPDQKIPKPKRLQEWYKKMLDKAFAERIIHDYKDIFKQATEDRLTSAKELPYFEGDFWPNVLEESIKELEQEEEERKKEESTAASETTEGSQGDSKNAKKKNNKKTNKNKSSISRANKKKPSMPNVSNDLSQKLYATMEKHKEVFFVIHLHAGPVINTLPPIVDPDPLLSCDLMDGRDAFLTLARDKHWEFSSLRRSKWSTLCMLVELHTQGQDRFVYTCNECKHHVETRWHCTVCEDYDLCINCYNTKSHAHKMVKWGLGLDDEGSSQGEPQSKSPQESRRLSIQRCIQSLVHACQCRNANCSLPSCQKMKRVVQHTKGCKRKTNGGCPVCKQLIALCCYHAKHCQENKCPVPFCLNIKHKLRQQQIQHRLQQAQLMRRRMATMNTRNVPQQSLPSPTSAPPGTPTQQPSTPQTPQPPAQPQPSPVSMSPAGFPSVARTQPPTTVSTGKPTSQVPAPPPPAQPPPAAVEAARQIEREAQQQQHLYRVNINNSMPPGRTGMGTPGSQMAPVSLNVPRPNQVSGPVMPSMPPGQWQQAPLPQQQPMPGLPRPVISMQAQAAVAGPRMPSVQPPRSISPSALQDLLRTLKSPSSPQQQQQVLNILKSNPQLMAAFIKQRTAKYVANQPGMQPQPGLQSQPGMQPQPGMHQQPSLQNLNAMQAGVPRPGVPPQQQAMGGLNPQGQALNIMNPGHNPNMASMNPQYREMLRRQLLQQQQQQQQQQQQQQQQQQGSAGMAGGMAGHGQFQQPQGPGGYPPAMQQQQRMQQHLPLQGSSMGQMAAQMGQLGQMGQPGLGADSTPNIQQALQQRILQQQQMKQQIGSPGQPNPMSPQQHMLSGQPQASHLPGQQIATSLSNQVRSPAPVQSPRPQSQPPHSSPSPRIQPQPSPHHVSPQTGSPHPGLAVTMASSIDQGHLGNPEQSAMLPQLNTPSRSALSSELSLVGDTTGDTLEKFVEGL
Description: Binding affinity to CREBBP (unknown origin) assessed as change in melting temperature of protein

[22] = Oral bioavailability in rat at 5 mg/kg; assay type: ADME, organism-based; conditions: in vivo
[23] = Antitumour activity against patient-derived human PAT78 cells xenografted in mouse model at 1.6 mg/kg, po bid, 5 days on and 2 days off for 2 weeks; assay type: functional; conditions: PAT78, 120 h, time 5 day, read-out: TGI
[24] = biological target: T1, Voltage-gated inwardly rectifying potassium channel KCNH2; assay: Inhibition of human ERG by flux assay
[25] = tested on: A549; assay: Anticancer activity against human A549 cells; assay type: functional, cell-based
[26] = Drug concentration at steady state in human LG0787F cells xenografted in NSG mouse at 0.5 mg/kg/day infused continuously over 6 days using Alzet pump; assay type: ADME, organism-based; conditions: in vivo, 144 h, time 6 day
[27] = biological target: Cytochrome P450 3A4 (Homo sapiens, UniProt P08684); assay: Inhibition of CYP3A4 (unknown origin); assay type: ADME
Chain of Cytochrome P450 3A4 (P08684 whole entry): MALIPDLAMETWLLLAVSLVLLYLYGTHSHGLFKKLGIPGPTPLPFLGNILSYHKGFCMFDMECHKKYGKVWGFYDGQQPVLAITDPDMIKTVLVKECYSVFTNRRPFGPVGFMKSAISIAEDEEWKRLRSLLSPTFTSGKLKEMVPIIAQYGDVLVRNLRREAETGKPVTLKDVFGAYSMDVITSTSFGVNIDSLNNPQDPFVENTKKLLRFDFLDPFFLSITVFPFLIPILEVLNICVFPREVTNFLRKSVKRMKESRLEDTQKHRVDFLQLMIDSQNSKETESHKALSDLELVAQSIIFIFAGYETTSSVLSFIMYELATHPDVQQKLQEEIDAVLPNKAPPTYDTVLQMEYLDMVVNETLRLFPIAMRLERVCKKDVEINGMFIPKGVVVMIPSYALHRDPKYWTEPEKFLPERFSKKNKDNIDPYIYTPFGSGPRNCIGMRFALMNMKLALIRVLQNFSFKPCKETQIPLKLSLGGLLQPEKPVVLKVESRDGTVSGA

[28] = tested on: NCI-H1792; assay: Anticancer activity against human NCI-H1792 cells; assay type: functional, cell-based
[29] = tested on: NCI-H2228; assay: Anticancer activity against human […] cells; assay type: functional, cell-based
[30] = Anticancer activity against human JJN3R cells; assay type: functional, cell-based; conditions: JJN-3R
[31] = Total plasma clearance in monkey at 0.1 mg/kg, iv; assay type: ADME, organism-based, Macaca mulatta; conditions: rhesus monkey
[32] = AUC (0 to 7 hrs) in mouse at 30 mg/kg, po; assay type: ADME, organism-based; design: time < 7 hr, dose 30 mg/kg, route po; conditions: in vivo
[33] = Antitumour activity against patient-derived human PAT138 cells xenografted in mouse model at 1.6 mg/kg, po bid, 5 days on and 2 days off for 2 weeks; assay type: functional; conditions: PAT138, 120 h, time 5 day, read-out: TGI
[34] = tested on: NCI-H146; assay: Anticancer activity against human NCI-H146 cells; assay type: functional, cell-based
[35] = Antitumour activity against patient-derived human LG0787F cells xenografted in mouse model at 1.6 mg/kg, po bid, 5 days on and 2 days off for 2 weeks; assay type: functional; conditions: 120 h, time 5 day, read-out: TGI
[36] = Antitumour activity against patient-derived human PAT130 cells xenografted in mouse model at 1.6 mg/kg, po bid, 5 days on and 2 days off for 2 weeks; assay type: functional; conditions: PAT130, 120 h, time 5 day, read-out: TGI
[37] = Metabolic stability in mouse liver microsomes assessed as parent compound remaining at 0.5 uM after 10 mins; assay type: ADME, Microsome; conditions: read-out: Stability
[38] = tested on: NCI-H2170; assay: Anticancer activity against human NCI-H2170 cells; assay type: functional, cell-based
[39] = tested on: NCI-H2030; assay: Anticancer activity against human NCI-H2030 cells; assay type: functional, cell-based
[40] = Anticancer activity against human HCC15 cells; assay type: functional, cell-based
[41] = Antitumour activity against patient-derived human PAT157 cells xenografted in mouse model at 1.6 mg/kg, po bid, 5 days on and 2 days off for 2 weeks; assay type: functional; conditions: PAT157, 120 h, time 5 day, read-out: TGI
[42] = Permeability coefficient across basolateral to apical side in human Caco-2 cells; assay type: ADME, cell-based; conditions: read-out: permeability
[43] = Oral bioavailability in dog at 5 mg/kg; assay type: ADME, organism-based, Canis lupus familiaris; conditions: in vivo
[44] = Anticancer activity against human HCC1588 cells; assay type: functional, cell-based
[45] = Antitumour activity against patient-derived human PAT140 cells xenografted in mouse model at 1.6 mg/kg, po bid, 5 days on and 2 days off for 2 weeks; assay type: functional; conditions: PAT140, 120 h, time 5 day, read-out: TGI
[46] = Drug concentration at steady state in human LG0787F cells xenografted in NSG mouse at 1 mg/kg/day infused continuously over 6 days using Alzet pump; assay type: ADME, organism-based; conditions: in vivo, 144 h, time 6 day
[47] = Permeability coefficient of the compound by PAMPA; assay type: ADME; conditions: read-out: permeability
[48] = biological target: Bromodomain-containing protein 4 (Homo sapiens, UniProt O60885); assay: Inhibition of human BRD4 (1 to 477 residues) measured after 60 mins by TR-FRET assay
[49] = tested on: DMS-53; assay: Anticancer activity against human DMS-53 cells; assay type: functional, cell-based
[50] = AUC in human LG0787F cells xenografted in NSG mouse at 1 mg/kg/day, po bid; assay type: ADME, organism-based; design: dose 1 mg/kg/day, route po; conditions: in vivo

T1 sequence (Q12809 whole entry): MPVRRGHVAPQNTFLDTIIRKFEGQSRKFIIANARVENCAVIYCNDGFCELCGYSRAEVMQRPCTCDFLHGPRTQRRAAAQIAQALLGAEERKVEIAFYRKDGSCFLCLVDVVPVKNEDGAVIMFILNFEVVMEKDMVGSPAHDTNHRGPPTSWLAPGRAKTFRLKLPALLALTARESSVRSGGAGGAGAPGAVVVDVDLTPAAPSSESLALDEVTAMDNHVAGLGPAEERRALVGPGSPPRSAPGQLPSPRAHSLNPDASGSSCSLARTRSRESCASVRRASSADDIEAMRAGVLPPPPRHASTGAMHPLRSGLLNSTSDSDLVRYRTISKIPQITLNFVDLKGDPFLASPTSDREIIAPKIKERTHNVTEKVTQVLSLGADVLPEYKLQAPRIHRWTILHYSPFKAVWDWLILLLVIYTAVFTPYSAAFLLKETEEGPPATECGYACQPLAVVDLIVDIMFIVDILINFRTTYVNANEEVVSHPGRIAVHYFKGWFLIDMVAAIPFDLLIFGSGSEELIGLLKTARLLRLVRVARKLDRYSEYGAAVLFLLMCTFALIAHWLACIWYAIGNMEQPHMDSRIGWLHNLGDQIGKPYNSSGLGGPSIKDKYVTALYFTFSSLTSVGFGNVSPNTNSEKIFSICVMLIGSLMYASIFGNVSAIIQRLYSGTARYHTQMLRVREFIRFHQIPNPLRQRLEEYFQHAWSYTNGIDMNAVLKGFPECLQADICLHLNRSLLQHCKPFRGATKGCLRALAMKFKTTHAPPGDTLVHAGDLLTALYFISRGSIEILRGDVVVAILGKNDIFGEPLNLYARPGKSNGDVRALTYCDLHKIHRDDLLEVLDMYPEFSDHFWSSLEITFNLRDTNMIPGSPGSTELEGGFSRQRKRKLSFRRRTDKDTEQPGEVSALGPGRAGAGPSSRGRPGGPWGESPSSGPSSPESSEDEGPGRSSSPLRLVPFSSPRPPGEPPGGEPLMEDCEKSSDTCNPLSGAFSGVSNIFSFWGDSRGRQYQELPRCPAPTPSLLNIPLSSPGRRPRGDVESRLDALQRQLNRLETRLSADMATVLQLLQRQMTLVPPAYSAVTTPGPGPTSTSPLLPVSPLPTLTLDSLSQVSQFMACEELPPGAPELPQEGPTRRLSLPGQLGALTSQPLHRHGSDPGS

- half-life [2]: 2 h
- clearance [3]: 41 mL/min/kg
- efflux ratio [4]: 2.6
- IC50 [5]: 5600 nM
- bioavailability [6]: 16%
- IC50 [7]: > 500 nM
- Vd [9]: 4.2 L/kg
- IC50 [12]: > 20000 nM
- Cmax [13]: 150 nM
- IC50 [15]: 8.1 nM
- Vd [17]: 1.9 L/kg
- IC50 [19]: > 500 nM
- IC50 [20]: 1.4 nM
- ΔTm [21]: 5.6 °C
- bioavailability [22]: 47%
- IC50 [25]: > 500 nM
- Css [26]: 10 nM
- IC50 [27]: > 20000 nM
- IC50 [28]: > 500 nM
- IC50 [29]: 166 nM
- IC50 [30]: 0.7 nM
- clearance [31]: 32 mL/min/kg
- AUC(0-t) at 7 h [32]: 49.6 µM·h
- IC50 [34]: 0.41 nM
- remaining at 10 min, 0.5 µM [37]: 66%
- IC50 [38]: 91 nM
- IC50 [39]: > 500 nM
- IC50 [40]: 365 nM
- Papp B→A [42]: 34.7 ×10⁻⁶ cm/s
- bioavailability [43]: 59%
- IC50 [44]: > 500 nM
- Css [46]: 17 nM
- Papp [47]: 66.1 ×10⁻⁶ cm/s
- IC50 [48]: 1.1 nM
- IC50 [49]: 0.29 nM
- AUC [50]: 0.47 µM·h
SMILES: Cc1nnn(C)c1-c1cnc2c3ccc(C(C)(C)O)cc3n([C@H](c3ccccc3)C3CCOCC3)c2c1 [EZOBRESIB]
- IC50 [1]: 28000 nM
- inhibition in vivo at 1.6 mg/kg [8]: 9%
- MEC [10]: 10 nM
- inhibition in vivo at 1.6 mg/kg [11]: 50%
- inhibition in vivo at 0.5 mg/kg/day [14]: 62%
- inhibition in vivo at 1.6 mg/kg [16]: 65%
- inhibition in vivo at 0.25 mg/kg/day [18]: 46%
- inhibition in vivo at 1.6 mg/kg [23]: 47%
- IC50 [24]: > 80000 nM
- inhibition in vivo at 1.6 mg/kg [33]: 75%
- inhibition in vivo at 1.6 mg/kg [35]: 110%
- inhibition in vivo at 1.6 mg/kg [36]: 76%
- inhibition in vivo at 1.6 mg/kg [41]: 23%
- inhibition in vivo at 1.6 mg/kg [45]: 59%
